Experimental data taken from patent publication EP0293826A2, “Therapeutic and prophylactic application of sulfated polysaccharides against AIDS” (priority 1987, dated 1988).

Tested on: HIV-1
Test: Inhibition of HIV-1 replication in MT-4 cells (trypan blue exclusion, day 5)
Type: cell-based
Details: not given
Procedure: MT-4 cells were suspended at 5 x 10^s cells per ml and infected with HIV-1 at 1000 CCIDso per ml (1 CCIDso being the 50% cell culture infective dose). After 2 h-incubation at 37° C, 5 x 10^4 cells per 100 µl were brought into each well of a flat-bottomed 96-well plastic microtiter tray containing 100 µl of various dilutions of the test compounds. After 5 days incubation at 37° C, the number of viable cells was determined microscopically in an hemacytometer by trypan blue exclusion. Anti-HIV-1 activity of the compounds was also determined by monitoring viral antigen expression in HUT-78 cells at day 14 after infection, measured by indirect immunifluorescence, using a polyclonal antibody as probe.

Q: With “glucosamine-2,3-disulfate [glucosamine 2,3-disulfate]” as the molecule, how does the “concentration at which no anti-HIV-1 activity was shown” value read?
A: > 125 µg/mL

Q: With `N[C@H]1C(O)O[C@H](CO)[C@@H](O)[C@@H]1OS(=O)(=O)O` (stereo partly shown) [glucosamine 3-sulfate, glucosamine-3-sulfate] as the molecule, how does the “concentration at which no anti-HIV-1 activity was shown” value read?
A: > 125 µg/mL

Q: For `N[C@H]1C(O)O[C@H](COS(=O)(=O)O)[C@@H](O)[C@@H]1O` (stereo partly shown) [glucosamine 6-sulfate, glucosamine-6-sulfate], which “concentration at which no anti-HIV-1 activity was shown” value is on record?
A: > 125 µg/mL

Q: For “glucosamine-2-sulfate [glucosamine 2-sulfate]”, which “concentration at which no anti-HIV-1 activity was shown” value is on record?
A: > 125 µg/mL

Tested on: human immuno deficiency virus (HIV)
Test: not given
Details: cited from earlier work

Q: Which “concentration completely protecting ATH8 cells against the cytopathogenicity of HIV” value does the source give for `Cc1cn([C@H]2C[C@H](N=[N+]=[N-])[C@@H](CO)O2)c(=O)[nH]c1=O` [AZT, 3 -azido-2',3 -dideoxythymidine] here?
A: 1-5 µ.M

Q: With `Cc1cc(-c2ccc(/N=N/c3ccc4c(S(=O)(=O)O)cc(S(=O)(=O)O)c(N)c4c3O)c(C)c2)ccc1/N=N/c1ccc2c(S(=O)(=O)O)cc(S(=O)(=O)O)c(N)c2c1O` [Evans Blue] as the molecule, how does the “concentration completely protecting ATH8 cells against the cytopathogenicity of HIV” value read?
A: 25 µg/mL

Q: For `Cc1ccc(C(=O)Nc2ccc(S(=O)(=O)O)c3cc(S(=O)(=O)O)cc(S(=O)(=O)O)c23)cc1NC(=O)c1cccc(NC(=O)Nc2cccc(C(=O)Nc3cc(C(=O)Nc4ccc(S(=O)(=O)O)c5cc(S(=O)(=O)O)cc(S(=O)(=O)O)c45)ccc3C)c2)c1` [suramin], which “concentration completely protecting ATH8 cells against the cytopathogenicity of HIV” value is on record?
A: 50 µg/mL
